# Laboratory results: paper PMC10202811 (Nature Medicine, 2023)
# “And” between values parts separate entries of the source, which are not always exact repeats. Identical values can stand only once.
# System: ALK-driven refractory or relapsed neuroblastoma
# Test: Functional imaging response: MIBG Curie score / FDG-PET avidity
# Format: in vivo, human
# Design: key to Symbol to indicate Soft tissue became MIBG non-avid: *: Symbol to indicate Soft tissue became MIBG non-avid
# Settings: for complete resolution of MIBG avidity (CR) in bone and/or soft tissue: patients with BOR of SD/MR/PR
# Description: Patients underwent disease staging at baseline, after courses 2 and 4 and then every four courses thereafter. The primary endpoint for response analysis is the BOR, defined as the best response observed before progression or start of another therapy. […] Response was graded according to the NANT response criteria version 2.0 (ref. [26]), modified from the International Neuroblastoma Response Criteria (INRC)[48]. NANT response criteria use three components for assessment of overall response: soft tissue response assessed by anatomical imaging and avidity on MIBG or FDG-PET; bone response assessed by uptake in bone by MIBG or bone involvement on FDG-PET; and bone marrow response assessed by morphology on bilateral aspirates and biopsies. Each response component (soft tissue, bone and bone marrow) are graded as CR, PR, SD and PD. Overall response grading is defined as: CR, if a response of CR in all components that are involved at baseline; PR, if a response of PR or better in all involved components; MR, if a response of PR or better but with at least one involved component as SD and no PD in all involved components; SD, if a response of SD in all involved components; and PD, if a response of PD in at least one involved component. The overall response definitions are identical to overall responses (CR, PR, SD and PD) as defined by the INRC. Response assessment is initially performed by sites and reviewed against source documents by NANT operations. Additional blinded central review of all radiological or pathological data was conducted for patients with overall PR or better and, in addition, radiologic pathological data of all involved sites for patients with MR to assign the final BOR on this study. Response by MIBG was determined using the Curie criteria. RR was determined as the proportion of patients with BOR of CR and PR in each cohort. Based on an international consensus by the National Cancer Institute Clinical Trials Planning Committee to refine tumor site eligibility criteria and evaluation of disease response for early-phase clinical trials in children with high-risk recurrent, refractory and progressive neuroblastoma, we also performed an ad hoc analysis to determine a modified RR that includes the proportion of patients with BOR of CR, PR and MR.
compound,measurement,setting,value
"C[C@H]1Oc2cc(cnc2N)-c2c(nn(C)c2C#N)CN(C)C(=O)c2ccc(F)cc21 [Lorlatinib, (10R)-7-amino-12-fluoro-2,10,16-trimethyl-15-oxo-10,15,16,17-tetrahydro-2H-8,4-(metheno)pyrazolo[4,3-h][2,5,11]-benzoxadiazacyclotetradecine-3-carbonitrile]",responders achieving MIBG complete responses,"13 of 27 responders, all cohorts",48%
same,MIBG Curie Score % change from baseline,"Cohort A1, individual patient",-87% and -94% and -100% and 600% and 50% and 40% and 33% and -10% and -18% and -70%
same,Symbol to indicate Soft tissue became MIBG non-avid,"Cohort A1, individual patient",*
same,MIBG Curie Score % change from baseline,"Cohort A2, individual patient",-4.76% and -25% and -44% and -56% and -67% and -95% and -100%
same,Symbol to indicate Soft tissue became MIBG non-avid,"Cohort A2, individual patient",*
same,MIBG Curie Score % change from baseline,"Cohort B2, individual patient",100% and 56% and 1% and -33% and -73% and -75% and -100%
same,Symbol to indicate Soft tissue became MIBG non-avid,"Cohort B2, individual patient",*
same,Curie Score Percent Change,Patient ID 2,-100
same,Minimum Curie,"Patient ID 2, Enrollment Curie 5",0
same,Curie Score Percent Change,Patient ID 3,-94.44
same,Minimum Curie,"Patient ID 3, Enrollment Curie 18",1
same,Curie Score Percent Change,Patient ID 9,-10
same,Minimum Curie,"Patient ID 9, Enrollment Curie 10",9
same,Curie Score Percent Change,Patient ID 10,50
same,Minimum Curie,"Patient ID 10, Enrollment Curie 4",6
same,Curie Score Percent Change,Patient ID 11,-100
same,Minimum Curie,"Patient ID 11, Enrollment Curie 1",0
same,Curie Score Percent Change,Patient ID 12,33.33
same,Minimum Curie,"Patient ID 12, Enrollment Curie 6",8
same,Curie Score Percent Change,Patient ID 17,-86.66
same,Minimum Curie,"Patient ID 17, Enrollment Curie 15",2
same,Curie Score Percent Change,Patient ID 21,-100
same,Minimum Curie,"Patient ID 21, Enrollment Curie 3",0
same,Curie Score Percent Change,Patient ID 25,-100
same,Minimum Curie,"Patient ID 25, Enrollment Curie 2",0
same,Curie Score Percent Change,Patient ID 26,-18.18
same,Minimum Curie,"Patient ID 26, Enrollment Curie 11",9
same,Curie Score Percent Change,Patient ID 30,40
same,Minimum Curie,"Patient ID 30, Enrollment Curie 5",7
same,Curie Score Percent Change,Patient ID 31,-100
same,Minimum Curie,"Patient ID 31, Enrollment Curie 3",0
same,Curie Score Percent Change,Patient ID 32,600
same,Minimum Curie,"Patient ID 32, Enrollment Curie 2",14
same,Curie Score Percent Change,Patient ID 38,-100
same,Minimum Curie,"Patient ID 38, Enrollment Curie 3",0
same,Curie Score Percent Change,Patient ID 40,-70
same,Minimum Curie,"Patient ID 40, Enrollment Curie 10",3
same,complete resolution of MIBG avidity (CR) in bone and/or soft tissue,"A1, five of eight",63%
same,complete resolution of MIBG avidity (CR) in bone and/or soft tissue,"A2, three of ten",30%
same,complete resolution of MIBG avidity (CR) in bone and/or soft tissue,"B2, one of four",25%
same,complete resolution of metabolic activity in soft tissue lesions by MIBG/FDG-PET,ten of 22 patients with avid soft tissue lesions and BOR of SD/MR/PR,45%
